Measured values as given in ChEMBL document CHEMBL1150410, “Identification of MMP-12 inhibitors by using biosensor-based screening of a fragment library” (J Med Chem, 2008).
pIC50: −log10 of the molar value.

Columns and labels:
[1] = biological target: T1, Macrophage metalloelastase (Homo sapiens, UniProt P39900); experiment: Inhibition of MMP12 at 500 uM
Target sequence in this assay (P39900 106-470 limits assumed): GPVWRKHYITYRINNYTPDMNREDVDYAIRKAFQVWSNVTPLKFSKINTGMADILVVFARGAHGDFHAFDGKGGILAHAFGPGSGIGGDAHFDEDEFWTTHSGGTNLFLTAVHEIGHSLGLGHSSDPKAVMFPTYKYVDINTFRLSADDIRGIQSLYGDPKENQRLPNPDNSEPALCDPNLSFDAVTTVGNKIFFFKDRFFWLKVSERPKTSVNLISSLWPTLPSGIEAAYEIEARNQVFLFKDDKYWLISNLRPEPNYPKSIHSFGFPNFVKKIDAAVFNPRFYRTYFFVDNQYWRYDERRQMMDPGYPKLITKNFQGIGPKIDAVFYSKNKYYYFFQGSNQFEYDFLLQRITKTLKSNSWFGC

[2] = biological target: T1, Macrophage metalloelastase; experiment: Inhibition of MMP12
Target sequence in this assay (P39900 whole entry): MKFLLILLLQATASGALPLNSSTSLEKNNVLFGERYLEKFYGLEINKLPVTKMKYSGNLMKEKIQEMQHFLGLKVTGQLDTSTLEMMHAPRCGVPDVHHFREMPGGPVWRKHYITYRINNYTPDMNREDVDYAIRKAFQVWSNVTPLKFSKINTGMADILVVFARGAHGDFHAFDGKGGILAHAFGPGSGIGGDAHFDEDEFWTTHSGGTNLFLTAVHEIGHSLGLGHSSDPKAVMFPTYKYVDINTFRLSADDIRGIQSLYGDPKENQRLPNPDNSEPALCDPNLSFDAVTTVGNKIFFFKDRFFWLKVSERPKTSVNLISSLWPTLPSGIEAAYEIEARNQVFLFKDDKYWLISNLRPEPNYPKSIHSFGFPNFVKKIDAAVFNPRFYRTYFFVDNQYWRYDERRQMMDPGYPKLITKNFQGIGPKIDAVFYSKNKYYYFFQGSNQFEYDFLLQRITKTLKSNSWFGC

[3] = biological target: T1, Macrophage metalloelastase; conditions: 0.0025 uM
Target sequence in this assay (P39900 106-470 limits assumed): as the sequence (P39900 106-470 limits assumed) above
Description: Inhibition of MMP12 at 0.0025 uM

Row | inhibition [1] [%] | pIC50 [2] | inhibition [3] [%] | Structure (SMILES)
1 | 25 | 2.70 |  | COc1ccc2nc[nH]c2c1
2 | 10 | 2.30 |  | Cc1nc(-c2ccc3c(c2)CCC(=O)N3)cs1
3 | 30 | 3.00 |  | Cn1cc2c(n1)-c1cc(Cl)ccc1SC2
4 | 60 | 3.45 |  | Cc1ccc2c(c1)NC(=O)CO2
5 |  | 9.00 | 75 | CNC(=O)[C@H](Cc1c[nH]c2ccccc12)NC(=O)[C@@H](CC(=O)NO)CC(C)C [ILOMASTAT]
6 | 100 | 6.54 |  | O=C1NC(=O)C(c2ccccc2)N1 (configuration not stated)
